The results in this text go back to patent publication US10376481B2, “Compounds and methods for inhibiting NHE-mediated antiport in the treatment of disorders associated with fluid retention or salt overload and gastrointestinal tract disorders” (ARDELYX, INC, priority 2012, dated 2019).

For data set [1], the target named is T1, human NHE3 (Homo sapiens, UniProt P48764).
T1 sequence (P48764 26-834): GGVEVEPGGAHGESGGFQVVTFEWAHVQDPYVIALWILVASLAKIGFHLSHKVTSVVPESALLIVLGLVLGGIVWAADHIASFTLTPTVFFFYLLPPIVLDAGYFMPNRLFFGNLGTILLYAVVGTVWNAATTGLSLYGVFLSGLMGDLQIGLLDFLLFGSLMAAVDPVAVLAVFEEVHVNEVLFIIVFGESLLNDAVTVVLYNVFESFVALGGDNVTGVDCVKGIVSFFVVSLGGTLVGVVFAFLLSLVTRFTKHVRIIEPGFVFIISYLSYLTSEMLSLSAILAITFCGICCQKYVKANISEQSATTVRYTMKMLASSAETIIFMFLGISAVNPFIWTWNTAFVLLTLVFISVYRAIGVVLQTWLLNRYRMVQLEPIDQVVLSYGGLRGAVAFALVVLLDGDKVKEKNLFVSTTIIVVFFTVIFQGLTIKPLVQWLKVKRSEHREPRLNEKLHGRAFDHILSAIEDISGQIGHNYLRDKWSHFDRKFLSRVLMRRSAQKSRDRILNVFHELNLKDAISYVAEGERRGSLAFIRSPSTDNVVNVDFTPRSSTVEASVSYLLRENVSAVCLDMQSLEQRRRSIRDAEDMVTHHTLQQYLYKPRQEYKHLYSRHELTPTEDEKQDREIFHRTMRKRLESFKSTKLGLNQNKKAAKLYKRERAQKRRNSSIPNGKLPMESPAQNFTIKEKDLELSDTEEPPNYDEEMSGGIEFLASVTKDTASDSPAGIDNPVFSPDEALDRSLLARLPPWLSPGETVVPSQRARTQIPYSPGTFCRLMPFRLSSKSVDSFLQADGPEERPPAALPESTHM
As to the kind of experiment: Cell-based assay of NHE-3 activity (human NHE3 inhibition assay). Further details: expressed in transfected cells; host or cells: Opossum kidney (OK) cells (ATCC), electroporated. The settings on record: OK cells with human NHE-3 gene, BCECF pH recovery, 0-30 μM test compound; read-out: Human NHE3 pIC50 (converted). The essentials: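 Opossum kidney cells electroporated with rat or human NHE-3, loaded with 5 μM BCECF-AM in NH4Cl-HEPES pH 7.4 for 30 min at RT, then acidified 10 min in Na+-free choline HEPES. Na+-dependent pH recovery rates from BCECF fluorescence, averaged over ≥2 replicates, gave pIC50.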

Data set [2] has as its target T1, human NHE3. As to the kind of experiment: Cell-based assay of NHE-3 activity (persistent inhibition), human. The conditions noted are these: PS120 fibroblasts stably expressing human NHE3, 60 min incubation then washout; for IC50: read-out: pIC50 (human Persistence assay) (converted). The procedure:
The ability of compounds to inhibit human and rat NHE-3-mediated Na^+-dependent H^+ antiport after application and washout was measured using a modification of the pH sensitive dye method described above. PS120 fibroblasts stably expressing human NHE3 were obtained from Mark Donowitz (Baltimore, Md.). Opossum kidney (OK) cells were obtained from the ATCC and propagated per their instructions. The rat NHE-3 gene was introduced into OK cells via electroporation, and cells were seeded into 96 well plates and grown overnight. Medium was aspirated from the wells, cells were washed once with NaCl-HEPES buffer (100 mM NaCl, 50 mM HEPES, 10 mM glucose, 5 mM KCl, 2 mM CaCl2, 1 mM MgCl2, pH 7.4), then overlayed with NaCl-HEPES buffer containing 0-30 μM test compound. After a 60 min incubation at room temperature, the test drug containing buffer was aspirated from the cells. Following aspiration, cells were washed once with NaCl-HEPES buffer without drug, then incubated for 30 min at 37° C. with NH4Cl-HEPES buffer (20 mM NH4Cl, 80 mM NaCl, 50 mM HEPES, 5 mM KCl, 2 mM CaCl2, 1 mM MgCl2, pH 7.4) containing 5 μM BCECF-AM. Cells were washed once with Ammonium free, Na^+-free HEPES (100 mM choline, 50 mM HEPES, 10 mM glucose, 5 mM KCl, 2 mM CaCl2, 1 mM MgCl2, pH 7.4) and incubated in the same buffer for 10 minutes at room temperature to lower intracellular pH. NHE-3-mediated recovery of neutral intracellular pH was initiated (10 min after compound washout) by addition of Na-HEPES buffer. […] Changes in intracellular pH were monitored using a FLIPR Tetra® (Molecular Devices, Sunnyvale, Calif.) by excitation at λex 439 to 505 nm, and measuring BCECF fluorescence at λem 538 nm. The initial rate of the fluorescence ratio change was used as a measure of NHE-mediated Na^+/H^+ activity, and reported as the change in fluorescence ratio per minute. Initial rates were plotted as the average 2 or more replicates, and pIC50 values were estimated using GraphPad Prism.

A short description of a further data set: Fecal recovery. The settings on record: male, Sprague-Dawley, faeces; rat, oral gavage 1 mg/kg, collection time 48 h. The format is in vivo, Sprague Dawley rats. The procedure:
Three male Sprague Dawley rats were administered 1 mg/kg test compound by oral gavage. Feces were collected from study animals from 0-48 or 0-72 hours after dosing, dried by lyophilization, and homogenized. Replicate aliquots of 40-60 mg each were subjected to extraction/protein precipitation with 7:1 acetonitrile:water and centrifuged. Supernatants were diluted 1:10 in 50:50 acetonitrile:water prior to analysis by LC-MS/MS. Compound concentrations, determined by interpolation from a standard calibration curve prepared in blank feces matrix, were converted to the percentage of dosed material recovered by taking into account the total collected fecal matter. The percent recovery for each rat was reported as the mean of the calculations from replicate samples. The overall percent recovery (Fecal Recovery [%]) was reported as the mean percent recovery from three rats. Accurate quality control sample recoveries were confirmed in each run and extraction efficiency was periodically verified.

Take `CN(C)[C@H]1Cc2c(Cl)cc(Cl)cc2[C@@H]1Oc1ccc(S(=O)(=O)NCCOCCOCCNC(=O)CCC(C)(N)CCC(=O)NCCOCCOCCNS(=O)(=O)c2ccc(O[C@H]3c4cc(Cl)cc(Cl)c4C[C@@H]3N(C)C)cc2)cc1` [Example 11, 4-amino-N1,N7-bis(2-(2-(2-(4-((1S,2S)-4,6-dichloro-2-(dimethylamino)-2,3-dihydro-1H-inden-1-yloxy)phenylsulfonamido)ethoxy)ethoxy)ethyl)-4-methylheptanediamide]: the IC50 on human NHE3 [1] and on human NHE3 [2] was less than 100 nM throughout. The “% inhibition (human Persistence assay)” value on human NHE3 [2] is on record as “B (40-70%)”. The molecule also came in with a dose excreted in “Fecal recovery” of 82.1%.
`CN(C)[C@H]1Cc2c(Cl)cc(Cl)cc2[C@@H]1Oc1ccc(S(=O)(=O)NCCOCCOCCNC(=O)NCCCCNC(=O)NCCOCCOCCNS(=O)(=O)c2ccc(O[C@H]3c4cc(Cl)cc(Cl)c4C[C@@H]3N(C)C)cc2)cc1` [Example 1, (S,S)—N,N′-(10,17-dioxo-3,6,21,24-tetraoxa-9,11,16,18-tetraazahexacosane-1,26-diyl)bis(4-((1S,2S)-4,6-dichloro-2-(dimethylamino)-2,3-dihydro-1H-inden-1-yloxy)benzenesulfonamide)]: the IC50 at human NHE3 [1] is less than 100 nM. Further, at human NHE3 [2], the “% inhibition (human Persistence assay)” value is listed as “C (>70%)” and the IC50 is less than 100 nM. Further, the dose excreted in the data set “Fecal recovery” turned out to be 87.7%.
With `O=C(NCCCCNC(=O)NCCOCCOCCNS(=O)(=O)c1ccc(O[C@H]2c3cc(Cl)cc(Cl)c3C[C@@H]2N2CC[C@@H](O)C2)cc1)NCCOCCOCCNS(=O)(=O)c1ccc(O[C@H]2c3cc(Cl)cc(Cl)c3C[C@@H]2N2CC[C@@H](O)C2)cc1` [Example 30], at human NHE3 [1], the IC50 was less than 100 nM. In addition, at human NHE3 [2], the “% inhibition (human Persistence assay)” value is “C (>70%)” and the IC50 is less than 100 nM. In the data set “Fecal recovery”, this molecule returned a dose excreted of 66.8%.
For the molecule `N[C@@H]1CCCN([C@H]2Cc3c(Cl)cc(Cl)cc3[C@@H]2Oc2ccc(S(=O)(=O)NCCOCCOCCNC(=O)NCCCCNC(=O)NCCOCCOCCNS(=O)(=O)c3ccc(O[C@H]4c5cc(Cl)cc(Cl)c5C[C@@H]4N4CCC[C@@H](N)C4)cc3)cc2)C1` [Example 3, (S,S,R)—N,N′-(10,17-dioxo-3,6,21,24-tetraoxa-9,11,16,18-tetraazahexacosane-1,26-diyl)bis(4-((1S,2S)-2-((R)-3-aminopiperidin-1-yl)-4,6-dichloro-2,3-dihydro-1H-inden-1-yloxy)benzenesulfonamide)], the IC50 at human NHE3 [1] is less than 100 nM. For the same molecule, on human NHE3 [2], the “% inhibition (human Persistence assay)” value is “C (>70%)” and the IC50 was less than 100 nM. The molecule also gave a dose excreted in the data set “Fecal recovery” of 69.2%.
As for `CN(C)[C@H]1Cc2c(Cl)cc(Cl)cc2[C@@H]1Oc1ccc(S(=O)(=O)NCCOCCOCCNC(=O)COCC(=O)NCCOCCOCCNS(=O)(=O)c2ccc(O[C@H]3c4cc(Cl)cc(Cl)c4C[C@@H]3N(C)C)cc2)cc1` [Example 9, 2,2′-oxybis(N-(2-(2-(2-(4-((1S,2S)-4,6-dichloro-2-(dimethylamino)-2,3-dihydro-1H-inden-1-yloxy)phenylsulfonamido)ethoxy)ethoxy)ethyl)acetamide)], the IC50 was less than 100 nM on human NHE3 [1] and 100 to 1000 nM at human NHE3 [2]. For the same molecule, the “% inhibition (human Persistence assay)” value on human NHE3 [2] was “C (>70%)”. For the same molecule, the dose excreted in “Fecal recovery” turned out to be 65.7%.
